Test results as given in ChEMBL document CHEMBL5465560, “Selectivity Literature for EUbOPEN Chemogenomic Library” (2024).
Blank lines part the entries; values can stand above or below the compound they belong to.

What was measured:
[1] = target: Cyclin-dependent kinase 15 (Homo sapiens) (UniProt Q96Q40); test: Selectivity interaction (Ambit KINOMEscan and KiNATiv profiling in Jurkat cells) EUB0000090b CDK15; assay type: cell-based; settings: at 1 µM
[2] = target: T1, Bone morphogenetic protein receptor type-2 (Homo sapiens) (UniProt Q13873); test: Selectivity interaction (LanthaScreen Eu Kinase Binding Assay) EUB0001632a BMPR2; settings: at 10 µM
T1 sequence (whole entry): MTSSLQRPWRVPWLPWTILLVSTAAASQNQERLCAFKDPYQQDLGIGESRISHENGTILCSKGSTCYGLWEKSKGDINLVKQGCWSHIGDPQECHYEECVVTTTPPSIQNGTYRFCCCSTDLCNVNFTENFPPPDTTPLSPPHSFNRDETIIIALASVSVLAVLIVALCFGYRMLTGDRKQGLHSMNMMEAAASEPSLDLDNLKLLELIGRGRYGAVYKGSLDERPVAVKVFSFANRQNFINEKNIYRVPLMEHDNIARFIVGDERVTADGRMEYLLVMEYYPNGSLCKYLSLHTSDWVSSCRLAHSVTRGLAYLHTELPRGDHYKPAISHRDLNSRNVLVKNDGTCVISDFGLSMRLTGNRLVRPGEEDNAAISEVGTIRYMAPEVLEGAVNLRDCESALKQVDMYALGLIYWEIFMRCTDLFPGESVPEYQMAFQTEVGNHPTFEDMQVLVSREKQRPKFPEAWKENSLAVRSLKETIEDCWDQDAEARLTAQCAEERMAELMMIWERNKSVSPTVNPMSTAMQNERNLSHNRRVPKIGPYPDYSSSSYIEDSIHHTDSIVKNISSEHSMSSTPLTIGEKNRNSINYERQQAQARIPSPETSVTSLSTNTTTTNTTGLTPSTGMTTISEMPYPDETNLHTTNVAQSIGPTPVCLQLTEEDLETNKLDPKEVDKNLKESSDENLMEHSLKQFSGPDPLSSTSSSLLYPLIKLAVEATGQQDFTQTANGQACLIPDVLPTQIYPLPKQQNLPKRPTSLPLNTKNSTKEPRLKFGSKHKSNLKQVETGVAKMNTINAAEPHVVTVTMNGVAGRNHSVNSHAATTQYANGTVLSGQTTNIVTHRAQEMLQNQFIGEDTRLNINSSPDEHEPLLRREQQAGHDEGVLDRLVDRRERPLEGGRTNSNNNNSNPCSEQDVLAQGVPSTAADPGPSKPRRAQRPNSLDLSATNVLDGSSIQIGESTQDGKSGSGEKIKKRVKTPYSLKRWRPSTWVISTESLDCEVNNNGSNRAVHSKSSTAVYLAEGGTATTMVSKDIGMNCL

[3] = target: T2, Mitogen-activated protein kinase kinase kinase 3 (Homo sapiens) (UniProt Q99759); test: Selectivity interaction (LanthaScreen Eu Kinase Binding Assay) EUB0001632a MAP3K3; settings: at 10 µM
T2 sequence (whole entry): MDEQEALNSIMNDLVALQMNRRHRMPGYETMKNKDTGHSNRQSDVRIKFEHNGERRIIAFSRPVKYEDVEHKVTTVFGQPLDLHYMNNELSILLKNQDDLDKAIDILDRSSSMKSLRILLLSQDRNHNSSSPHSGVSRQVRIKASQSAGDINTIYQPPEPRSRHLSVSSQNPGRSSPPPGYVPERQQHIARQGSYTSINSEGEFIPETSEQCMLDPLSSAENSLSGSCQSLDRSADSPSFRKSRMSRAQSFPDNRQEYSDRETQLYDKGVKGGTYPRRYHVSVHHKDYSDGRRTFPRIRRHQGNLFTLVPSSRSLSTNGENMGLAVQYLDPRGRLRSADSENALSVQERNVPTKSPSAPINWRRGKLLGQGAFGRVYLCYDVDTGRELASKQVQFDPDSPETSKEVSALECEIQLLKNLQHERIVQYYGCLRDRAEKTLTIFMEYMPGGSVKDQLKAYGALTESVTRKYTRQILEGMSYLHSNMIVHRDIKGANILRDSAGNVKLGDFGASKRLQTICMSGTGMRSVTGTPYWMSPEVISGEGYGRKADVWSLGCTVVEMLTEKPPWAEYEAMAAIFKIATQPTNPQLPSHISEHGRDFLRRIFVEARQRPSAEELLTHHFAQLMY

[4] = target: T3, Serine/threonine-protein kinase NLK (Homo sapiens) (UniProt Q9UBE8); settings: at 10 µM
T3 sequence (whole entry): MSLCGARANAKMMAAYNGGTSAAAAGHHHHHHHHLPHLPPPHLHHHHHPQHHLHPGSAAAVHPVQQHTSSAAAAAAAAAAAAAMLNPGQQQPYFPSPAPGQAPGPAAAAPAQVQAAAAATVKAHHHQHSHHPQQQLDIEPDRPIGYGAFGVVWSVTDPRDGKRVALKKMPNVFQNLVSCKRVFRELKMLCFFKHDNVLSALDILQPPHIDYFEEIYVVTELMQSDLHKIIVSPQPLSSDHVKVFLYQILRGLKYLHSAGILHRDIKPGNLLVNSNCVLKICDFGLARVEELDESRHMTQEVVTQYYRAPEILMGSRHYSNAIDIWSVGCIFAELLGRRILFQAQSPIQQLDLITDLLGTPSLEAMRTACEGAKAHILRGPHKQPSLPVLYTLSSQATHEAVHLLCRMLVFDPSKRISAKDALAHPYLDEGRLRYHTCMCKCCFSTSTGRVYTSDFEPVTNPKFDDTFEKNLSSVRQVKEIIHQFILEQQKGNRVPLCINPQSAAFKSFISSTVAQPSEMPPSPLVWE

[5] = target: Bromodomain adjacent to zinc finger domain protein 2B (Homo sapiens) (UniProt Q9UIF8); test: Selectivity interaction (Human bromodomain panel (DSF assay)) EUB0000233b BAZ2B
Bromodomain adjacent to zinc finger domain protein 2B (Homo sapiens), sequence (Q9UIF8 whole entry, the tested form may be a part): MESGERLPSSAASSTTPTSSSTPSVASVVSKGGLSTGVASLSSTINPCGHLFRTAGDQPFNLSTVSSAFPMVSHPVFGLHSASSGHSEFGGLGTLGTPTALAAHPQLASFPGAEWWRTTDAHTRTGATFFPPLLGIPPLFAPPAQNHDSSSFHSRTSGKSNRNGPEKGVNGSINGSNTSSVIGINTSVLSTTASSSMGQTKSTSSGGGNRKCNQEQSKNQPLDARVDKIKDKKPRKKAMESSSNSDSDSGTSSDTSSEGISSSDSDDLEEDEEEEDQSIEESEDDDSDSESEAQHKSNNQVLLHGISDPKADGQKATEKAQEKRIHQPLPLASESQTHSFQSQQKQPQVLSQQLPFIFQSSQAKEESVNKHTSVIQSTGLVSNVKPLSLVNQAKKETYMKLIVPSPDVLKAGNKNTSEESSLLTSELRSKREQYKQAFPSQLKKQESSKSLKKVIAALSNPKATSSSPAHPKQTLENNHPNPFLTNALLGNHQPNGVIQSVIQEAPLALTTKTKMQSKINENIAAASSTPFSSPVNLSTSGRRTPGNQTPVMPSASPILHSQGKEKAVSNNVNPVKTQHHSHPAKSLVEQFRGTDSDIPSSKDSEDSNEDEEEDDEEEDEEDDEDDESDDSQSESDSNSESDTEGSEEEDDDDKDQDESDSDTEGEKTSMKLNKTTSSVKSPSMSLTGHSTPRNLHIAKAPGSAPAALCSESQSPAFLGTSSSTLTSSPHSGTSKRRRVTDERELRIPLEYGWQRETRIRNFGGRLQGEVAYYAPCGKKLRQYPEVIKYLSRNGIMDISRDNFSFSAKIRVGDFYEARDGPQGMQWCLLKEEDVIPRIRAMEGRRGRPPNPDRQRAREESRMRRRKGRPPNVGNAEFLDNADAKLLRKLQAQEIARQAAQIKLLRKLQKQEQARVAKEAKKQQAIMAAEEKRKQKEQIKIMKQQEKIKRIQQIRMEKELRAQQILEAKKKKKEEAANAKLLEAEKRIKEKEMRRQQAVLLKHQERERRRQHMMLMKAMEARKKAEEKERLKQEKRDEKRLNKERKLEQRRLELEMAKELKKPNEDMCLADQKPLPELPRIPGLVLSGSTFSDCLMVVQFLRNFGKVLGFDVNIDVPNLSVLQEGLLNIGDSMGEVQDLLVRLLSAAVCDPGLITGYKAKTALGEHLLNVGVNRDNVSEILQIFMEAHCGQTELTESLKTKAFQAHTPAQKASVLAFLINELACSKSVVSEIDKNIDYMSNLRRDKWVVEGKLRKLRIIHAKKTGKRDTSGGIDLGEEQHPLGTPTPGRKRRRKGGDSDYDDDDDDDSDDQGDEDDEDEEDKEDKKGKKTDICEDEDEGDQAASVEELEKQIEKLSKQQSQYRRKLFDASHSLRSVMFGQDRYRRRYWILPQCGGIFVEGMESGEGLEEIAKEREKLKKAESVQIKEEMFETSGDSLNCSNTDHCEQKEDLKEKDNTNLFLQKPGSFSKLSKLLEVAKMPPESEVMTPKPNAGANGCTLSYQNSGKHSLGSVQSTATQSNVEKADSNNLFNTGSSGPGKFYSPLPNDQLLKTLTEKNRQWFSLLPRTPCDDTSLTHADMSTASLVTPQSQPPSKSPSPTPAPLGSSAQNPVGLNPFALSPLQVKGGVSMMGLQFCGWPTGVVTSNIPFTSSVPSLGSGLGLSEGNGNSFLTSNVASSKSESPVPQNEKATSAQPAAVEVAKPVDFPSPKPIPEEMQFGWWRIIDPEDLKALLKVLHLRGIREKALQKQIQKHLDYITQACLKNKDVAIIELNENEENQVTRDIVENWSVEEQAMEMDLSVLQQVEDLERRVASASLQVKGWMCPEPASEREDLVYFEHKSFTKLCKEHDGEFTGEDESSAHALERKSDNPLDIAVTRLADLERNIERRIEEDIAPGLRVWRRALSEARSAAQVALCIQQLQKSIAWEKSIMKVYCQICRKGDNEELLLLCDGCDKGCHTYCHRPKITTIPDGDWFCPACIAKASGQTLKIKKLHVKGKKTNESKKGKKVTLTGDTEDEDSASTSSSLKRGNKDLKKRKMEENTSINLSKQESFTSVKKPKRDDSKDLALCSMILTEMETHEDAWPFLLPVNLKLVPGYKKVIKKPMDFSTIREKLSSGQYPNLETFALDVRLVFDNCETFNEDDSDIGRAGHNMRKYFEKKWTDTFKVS

[6] = target: cAMP-dependent protein kinase catalytic subunit beta (Homo sapiens) (UniProt P22694); test: Selectivity interaction (KinomeScan (DiscoverX)) EUB0000655a PRKACB; settings: at 10 µM
[7] = target: Cyclin-dependent kinase 18 (Homo sapiens) (UniProt Q07002); test: Selectivity interaction (KinomeScan (DiscoverX)) EUB0001619a CDK18; settings: at 1 µM
Cyclin-dependent kinase 18 (Homo sapiens), sequence (Q07002 whole entry): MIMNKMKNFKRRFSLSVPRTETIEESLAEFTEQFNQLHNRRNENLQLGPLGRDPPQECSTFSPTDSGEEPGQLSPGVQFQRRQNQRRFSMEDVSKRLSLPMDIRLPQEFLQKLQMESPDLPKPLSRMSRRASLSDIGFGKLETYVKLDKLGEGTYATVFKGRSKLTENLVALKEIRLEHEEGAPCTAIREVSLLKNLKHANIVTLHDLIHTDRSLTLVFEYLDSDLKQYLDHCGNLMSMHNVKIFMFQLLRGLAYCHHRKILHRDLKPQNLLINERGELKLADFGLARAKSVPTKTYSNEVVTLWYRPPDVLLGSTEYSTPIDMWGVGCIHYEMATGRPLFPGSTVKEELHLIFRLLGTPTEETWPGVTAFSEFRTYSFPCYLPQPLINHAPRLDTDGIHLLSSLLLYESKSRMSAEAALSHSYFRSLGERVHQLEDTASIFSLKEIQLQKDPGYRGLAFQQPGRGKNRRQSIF

[8] = target: Mitogen-activated protein kinase 14 (Homo sapiens, UniProt Q16539); test: Selectivity interaction (KinomeScan (DiscoverX)) EUB0000666a MAPK14; settings: at 10 µM
Mitogen-activated protein kinase 14, sequence (Q16539 whole entry): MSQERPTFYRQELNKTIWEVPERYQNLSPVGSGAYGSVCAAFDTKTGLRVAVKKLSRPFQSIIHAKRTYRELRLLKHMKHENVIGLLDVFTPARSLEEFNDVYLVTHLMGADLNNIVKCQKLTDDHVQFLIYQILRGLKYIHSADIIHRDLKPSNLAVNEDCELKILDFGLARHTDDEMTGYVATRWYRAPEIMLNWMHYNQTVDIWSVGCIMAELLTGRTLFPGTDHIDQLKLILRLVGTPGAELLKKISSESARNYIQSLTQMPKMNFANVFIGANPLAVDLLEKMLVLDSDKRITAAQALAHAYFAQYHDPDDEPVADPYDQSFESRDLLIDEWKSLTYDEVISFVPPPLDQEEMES

[9] = target: Tyrosine-protein kinase HCK (Homo sapiens) (UniProt P08631); test: Selectivity interaction (KinomeScan (DiscoverX)) EUB0000666a HCK; settings: at 10 µM
Tyrosine-protein kinase HCK (Homo sapiens), sequence (P08631 2-526 limits assumed): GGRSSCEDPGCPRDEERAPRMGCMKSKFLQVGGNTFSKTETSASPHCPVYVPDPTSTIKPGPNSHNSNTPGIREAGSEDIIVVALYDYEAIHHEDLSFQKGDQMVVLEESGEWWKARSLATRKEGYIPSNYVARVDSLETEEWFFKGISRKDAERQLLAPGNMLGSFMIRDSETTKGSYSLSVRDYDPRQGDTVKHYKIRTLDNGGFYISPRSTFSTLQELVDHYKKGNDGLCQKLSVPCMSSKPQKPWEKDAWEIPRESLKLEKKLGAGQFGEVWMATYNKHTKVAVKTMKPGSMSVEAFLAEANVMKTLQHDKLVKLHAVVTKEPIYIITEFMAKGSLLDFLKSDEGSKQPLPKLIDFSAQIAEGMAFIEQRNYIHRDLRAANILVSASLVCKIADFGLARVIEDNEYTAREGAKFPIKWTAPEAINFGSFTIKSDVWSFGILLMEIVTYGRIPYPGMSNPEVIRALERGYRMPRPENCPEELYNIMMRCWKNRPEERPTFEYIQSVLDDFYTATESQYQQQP

Cyclin-dependent kinase 15 (Homo sapiens), sequence (Q96Q40 whole entry): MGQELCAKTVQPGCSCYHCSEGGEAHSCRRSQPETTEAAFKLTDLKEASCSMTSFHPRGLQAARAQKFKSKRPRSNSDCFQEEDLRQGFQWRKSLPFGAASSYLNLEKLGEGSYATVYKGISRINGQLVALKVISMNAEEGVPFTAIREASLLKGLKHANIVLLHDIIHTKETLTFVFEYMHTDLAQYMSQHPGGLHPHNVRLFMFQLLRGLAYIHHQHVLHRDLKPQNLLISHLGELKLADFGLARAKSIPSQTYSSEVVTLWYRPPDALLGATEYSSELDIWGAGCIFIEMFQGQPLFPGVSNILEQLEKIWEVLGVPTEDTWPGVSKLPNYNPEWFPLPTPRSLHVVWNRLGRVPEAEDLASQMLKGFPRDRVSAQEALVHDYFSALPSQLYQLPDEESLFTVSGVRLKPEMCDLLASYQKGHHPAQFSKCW

Structure (SMILES): CN(C)C/C=C/C(=O)Nc1ccc(C(=O)N2CCCC(Nc3ncc(Cl)c(-c4c[nH]c5ccccc45)n3)C2)cc1 (centres undefined)
% of control [1]: 73%

% of inhibition [2]: -6.55%
% of inhibition [3]: -26.4%
Structure (SMILES): Cn1cc(-n2cnc3c(NCc4nc5cc(Cl)c(Cl)cc5[nH]4)nc(N4CCOCC4)nc32)cn1

% of control [4]: 100%
Structure (SMILES): CCN(CC)CCCCNc1ncc2cc(-c3cc(OC)cc(OC)c3)c(NC(=O)NC(C)(C)C)nc2n1

dTM [5]: < 2 K
Structure (SMILES): CN(C)CCCOc1ccc(-c2cc(NCCCn3cccn3)nc(S(C)(=O)=O)n2)cc1

Structure (SMILES): CN(C)CCOc1ccc(-c2nc(-c3ccncc3)c(-c3ccc4c(c3)CC/C4=N\O)[nH]2)cc1
% of control [6]: 74%

Structure (SMILES): N#Cc1cccc(-c2c[nH]c3ncnc(N4CCOCC4)c23)c1
% of control [7]: 100%

Structure (SMILES): O=C(NOC[C@H](O)CO)c1ccc(F)c(F)c1Nc1ccc(I)cc1F
% of control [8]: 100%
% of control [9]: 100%
